The record followed here is US20230117034A1, “PYRAZOLOTRIAZINES” (Bayer Aktiengesellschaft, priority 2019, published 2023).

Where only a bound is given, the exact number is not on record here.

Test [1] concerns CAL-120, human breast adenocarcinoma cells. Kind of test: Proliferation assay CAL-120 (crystal violet, 4 days). As to conditions: Homo sapiens, CAL-120, 96 h, CAL-120 cells, median, read-out: Prolif-CAL-120, IC50-[mol/l] (median). Format: cell-based. The gist of the method: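 Plated 4,000 cells/well, 10% FCS; 24 h later treated 0.01-10 µmol/L cpd (DMSO 0.1%), 4 d. Fix glutaraldehyde, stain 0.1% crystal violet pH 3.0, elute acetic acid, A595. Normalized to t0 plate/untreated; 4-param IC50.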

The target of test [2] is T1, CDK12 (nuclear staining in CAL-120 cells) (Homo sapiens, UniProt Q9NYV4).
T1 construct: endogenous in cells; host or cells: CAL-120 human breast cancer cells (DSMZ ACC 459)
The experiment in a line: CDK12 nuclear protein level: immunofluorescence/high content analysis (CAL-120). The class given is cell-based. The note with it: for DC50: CAL-120 cells, 24 h, immunofluorescence, 50% reduction of nuclear CDK12 staining intensity, median, read-out: CDK12 degradation IF, DC50- [mol/l] (median); for (IC50 CDK12 high ATP) to (Degradation DC50 CDK12) ratio: ratio of IC50 CDK12 high ATP kinase assay to DC50 CDK12 degradation (IF, CAL-120). Put shortly: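 CAL-120 cells were treated with compound for 24 h at 37 °C, fixed with PFA and immunostained for CDK12. Nuclear CDK12 intensity was quantified by automated image analysis and normalized to DMSO and control. DC50 is the concentration giving 50% reduction of nuclear staining.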

A further test concerns the target T2, CDK2/CycE (Homo sapiens, UniProt P24941).
T2 construct: purchased ProQinase GmbH (Freiburg, Germany); host or cells: insect cells (Sf9)
The experiment in a line: CDK2/CycE kinase assay (TR-FRET, 2 mM ATP). Format: biochemical. The note with it: 2 mM ATP (high ATP); median; read-out: CDK2/CyclinE, 2 mM ATP (high ATP), IC50 (median). The gist of the method:
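GST-tagged human CDK2 and CycE from Sf9 cells, about 10 ng/ml, pre-incubated 15 min at 22 °C with compound in Tris/HCl pH 8.0 buffer. Reaction with 2 mM ATP and 0.75 µM biotinylated peptide for 25 min at 22 °C. Phospho-RB antibody TR-FRET (665/620 nm ratio) read after 1 h; data normalised to no-inhibitor and no-enzyme controls.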
(In general: In TR-FRET formats the signal depends on donor and acceptor labels being close together.)

T1 sequence (Q9NYV4 whole entry): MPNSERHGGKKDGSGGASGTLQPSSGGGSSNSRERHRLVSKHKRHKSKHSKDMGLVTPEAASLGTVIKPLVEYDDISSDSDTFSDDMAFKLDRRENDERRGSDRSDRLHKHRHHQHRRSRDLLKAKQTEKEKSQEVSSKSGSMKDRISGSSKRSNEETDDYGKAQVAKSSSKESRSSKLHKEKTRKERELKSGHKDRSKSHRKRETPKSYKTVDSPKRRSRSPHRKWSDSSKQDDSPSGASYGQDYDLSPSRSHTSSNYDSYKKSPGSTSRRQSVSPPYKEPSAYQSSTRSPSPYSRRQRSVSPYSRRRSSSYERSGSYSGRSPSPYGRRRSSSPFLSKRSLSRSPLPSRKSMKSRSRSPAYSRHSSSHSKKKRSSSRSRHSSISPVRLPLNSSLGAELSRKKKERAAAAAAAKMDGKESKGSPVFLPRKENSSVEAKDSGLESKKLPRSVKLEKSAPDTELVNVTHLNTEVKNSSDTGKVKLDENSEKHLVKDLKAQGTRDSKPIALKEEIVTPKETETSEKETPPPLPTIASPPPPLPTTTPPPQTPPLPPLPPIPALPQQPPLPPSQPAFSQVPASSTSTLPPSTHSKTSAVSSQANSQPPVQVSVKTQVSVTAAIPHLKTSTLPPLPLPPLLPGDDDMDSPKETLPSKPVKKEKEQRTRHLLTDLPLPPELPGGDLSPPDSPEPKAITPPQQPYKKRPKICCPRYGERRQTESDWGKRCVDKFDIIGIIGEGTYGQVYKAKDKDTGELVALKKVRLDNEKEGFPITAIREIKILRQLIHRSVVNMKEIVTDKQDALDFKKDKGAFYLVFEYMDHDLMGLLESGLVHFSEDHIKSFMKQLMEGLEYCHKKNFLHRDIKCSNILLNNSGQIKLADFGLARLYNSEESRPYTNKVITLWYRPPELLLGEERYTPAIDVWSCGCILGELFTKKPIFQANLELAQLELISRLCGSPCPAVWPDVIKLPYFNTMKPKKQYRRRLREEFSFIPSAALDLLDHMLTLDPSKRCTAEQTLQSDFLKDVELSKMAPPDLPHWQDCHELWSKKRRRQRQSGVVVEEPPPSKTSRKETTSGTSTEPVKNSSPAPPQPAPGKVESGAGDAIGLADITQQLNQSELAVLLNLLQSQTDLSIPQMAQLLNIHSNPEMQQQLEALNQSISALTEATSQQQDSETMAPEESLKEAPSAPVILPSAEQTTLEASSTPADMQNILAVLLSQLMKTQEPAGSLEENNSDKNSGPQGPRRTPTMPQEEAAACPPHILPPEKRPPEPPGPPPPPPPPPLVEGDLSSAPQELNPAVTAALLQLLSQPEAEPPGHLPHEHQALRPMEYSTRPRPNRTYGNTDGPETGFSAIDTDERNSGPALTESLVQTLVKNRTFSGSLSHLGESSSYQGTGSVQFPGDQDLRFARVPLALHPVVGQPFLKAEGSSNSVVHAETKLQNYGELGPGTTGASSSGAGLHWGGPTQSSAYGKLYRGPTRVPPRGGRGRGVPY
T1 sequence (O75909 whole entry partner): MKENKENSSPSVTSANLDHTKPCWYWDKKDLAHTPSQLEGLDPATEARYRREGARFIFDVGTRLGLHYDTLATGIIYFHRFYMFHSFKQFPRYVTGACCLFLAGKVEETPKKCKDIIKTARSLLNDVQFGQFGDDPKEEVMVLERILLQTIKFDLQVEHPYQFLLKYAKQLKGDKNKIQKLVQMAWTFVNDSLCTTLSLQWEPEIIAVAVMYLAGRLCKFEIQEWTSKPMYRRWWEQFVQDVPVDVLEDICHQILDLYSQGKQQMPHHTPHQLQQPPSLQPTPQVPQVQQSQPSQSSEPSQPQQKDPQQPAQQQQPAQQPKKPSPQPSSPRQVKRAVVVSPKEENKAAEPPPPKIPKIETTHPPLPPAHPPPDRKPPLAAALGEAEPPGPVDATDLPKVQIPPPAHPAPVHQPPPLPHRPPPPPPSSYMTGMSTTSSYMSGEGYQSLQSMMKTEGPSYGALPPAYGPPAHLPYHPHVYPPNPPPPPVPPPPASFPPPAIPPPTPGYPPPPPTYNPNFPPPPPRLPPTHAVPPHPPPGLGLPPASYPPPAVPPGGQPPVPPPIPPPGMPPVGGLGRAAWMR

Consider `Fc1cccc2[nH]c(CNc3nc(N4CCOCC4)nc4c(C(F)(F)F)cnn34)nc12` [Example 274, N-[(4-fluoro-1H-benzimidazol-2-yl)methyl]-2-(morpholin-4-yl)-8-(trifluoromethyl)pyrazolo[1,5-a][1,3,5]triazin-4-amine], for which the IC50 in test [1] was 4.89 nM; at CDK2/CycE, above 12900 nM. The DC50 in test [2] is 0.881 nM. Moreover, the “(IC50 CDK12 high ATP) to (Degradation DC50 CDK12) ratio” value in test [2] came to 64.

Take `CN1CCN(c2nc(NCc3nc4cc(F)c(F)cc4[nH]3)n3ncc(C4CC4)c3n2)CC1` [Example 311, 8-cyclopropyl-N-[(5,6-difluoro-1H-benzimidazol-2-yl)methyl]-2-(4-methylpiperazin-1-yl)pyrazolo[1,5-a][1,3,5]triazin-4-amine]: the results for the IC50 (in test [1]; on CDK2/CycE) were 8.13 nM and above 20000 nM, respectively. The DC50 in test [2] stood at 6.15 nM. In addition, in test [2], the “(IC50 CDK12 high ATP) to (Degradation DC50 CDK12) ratio” value was above 3251.

Consider `Brc1cnn2c(NCc3nc4ccccc4[nH]3)nc(N3CCC4(CCN4)CC3)nc12` [Example 291, N-[(1H-benzimidazol-2-yl)methyl]-8-bromo-2-(1,7-diazaspiro[3.5]nonan-7-yl)pyrazolo[1,5-a][1,3,5]triazin-4-amine], for which the IC50 in test [1] amounted to 18.6 nM. Besides, in test [2], the DC50 worked out at 19.2 nM and the “(IC50 CDK12 high ATP) to (Degradation DC50 CDK12) ratio” value is 554. Besides, the IC50 on CDK2/CycE stood at 4070 nM.

For `CN1CCN(c2nc(NCc3nc4ccccc4[nH]3)n3ncc(C4CC4)c3n2)CC1` [Example 246, N-[(1H-benzimidazol-2-yl)methyl]-8-cyclopropyl-2-(4-methylpiperazin-1-yl)pyrazolo[1,5-a][1,3,5]triazin-4-amine], the IC50 in test [1] worked out at 12.1 nM. For the same molecule, in test [2], the DC50 was determined as 3 nM and the “(IC50 CDK12 high ATP) to (Degradation DC50 CDK12) ratio” value is above 4287. In addition, the IC50 at CDK2/CycE is above 20000 nM.

With `Brc1cnn2c(NCc3nc4ccccc4[nH]3)nc(N3CC4CCNC4C3)nc12` (stereo not shown) [Example 271, 2-(2,3,3a,4,6,6a-hexahydro-1H-pyrrolo[2,3-c]pyrrol-5-yl)-N-(1H-benzimidazol-2-ylmethyl)-8-bromo-pyrazolo[1,5-a][1,3,5]triazin-4-amine], the IC50 is 23.2 nM in test [1] and 10000 nM on CDK2/CycE. Further, the DC50 in test [2] was 18.3 nM. Besides, in test [2], the “(IC50 CDK12 high ATP) to (Degradation DC50 CDK12) ratio” value was above 1094.

Regarding `Fc1ccc2[nH]c(CNc3nc(N4CCOCC4)nc4c(CC(F)(F)F)cnn34)nc2c1` [Example 308, N-[(5-fluoro-1H-benzimidazol-2-yl)methyl]-2-(morpholin-4-yl)-8-(2,2,2-trifluoroethyl)pyrazolo[1,5-a][1,3,5]triazin-4-amine], in test [1], the IC50 came to 10.2 nM. For the same molecule, in test [2], the DC50 was found to be 4.93 nM and the “(IC50 CDK12 high ATP) to (Degradation DC50 CDK12) ratio” value is 1297. For the same molecule, on CDK2/CycE, the IC50 is above 20000 nM.

For the molecule `Brc1cnn2c(NCc3nc4c([nH]3)CCCC4)nc(N3CCOCC3)nc12` [Example 21, 8-bromo-2-(morpholin-4-yl)-N-[(4,5,6,7-tetrahydro-1H-benzimidazol-2-yl)methyl]pyrazolo[1,5-a][1,3,5]triazin-4-amine], the IC50 is 161 nM in test [1] and 2070 nM on CDK2/CycE. Further, the DC50 in test [2] was 186 nM. Further, the “(IC50 CDK12 high ATP) to (Degradation DC50 CDK12) ratio” value in test [2] is 52.

With `Fc1ccc2[nH]c(CNc3nc(N4CC5CCC(C4)N5)nc4c(C(F)(F)F)cnn34)nc2c1F` [Example 310, 2-(3,8-diazabicyclo[3.2.1]octan-3-yl)-N-[(4,5-difluoro-1H-benzimidazol-2-yl)methyl]-8-(trifluoromethyl)pyrazolo[1,5-a][1,3,5]triazin-4-amine], in test [1], the IC50 came out at 1.74 nM. Also, in test [2], the DC50 was determined as 17.3 nM and the “(IC50 CDK12 high ATP) to (Degradation DC50 CDK12) ratio” value amounted to 75. Also, the IC50 at CDK2/CycE is above 18600 nM.

Turning to `Fc1cccc2[nH]c(CNc3nc(N4C[C@H]5CC[C@@H](C4)N5)nc4c(C5CC5)cnn34)nc12` [Example 296, 8-cyclopropyl-2-[(1R,5S)-3,8-diazabicyclo[3.2.1]octan-3-yl]-N-[(4-fluoro-1H-benzimidazol-2-yl)methyl]pyrazolo[1,5-a][1,3,5]triazin-4-amine], the IC50 in test [1] was determined as 1.52 nM; on CDK2/CycE, 5610 nM. Besides, in test [2], the DC50 worked out at 2.55 nM. Moreover, the “(IC50 CDK12 high ATP) to (Degradation DC50 CDK12) ratio” value in test [2] is on record as 971.

On to `CN(CC(C)(C)O)c1nc(NCc2nc3c(F)c(F)ccc3[nH]2)n2ncc(C3CC3)c2n1` [Example 292, 1-[(8-cyclopropyl-4-{[(4,5-difluoro-1H-benzimidazol-2-yl)methyl]amino}pyrazolo[1,5-a][1,3,5]triazin-2-yl)(methyl)amino]-2-methylpropan-2-ol], for which the IC50 in test [1] came to 3.01 nM. In addition, in test [2], the DC50 turned out to be 0.878 nM and the “(IC50 CDK12 high ATP) to (Degradation DC50 CDK12) ratio” value is 758. Besides, at CDK2/CycE, the IC50 is above 5190 nM.

As to `Fc1cc2nc(CNc3nc(N4CCOCC4)nc4c(C5CC5)cnn34)[nH]c2cc1F` [Example 318, 8-cyclopropyl-N-[(5,6-difluoro-1H-benzimidazol-2-yl)methyl]-2-(morpholin-4-yl)pyrazolo[1,5-a][1,3,5]triazin-4-amine], the IC50 in test [1] turned out to be 2.8 nM. In test [2], the DC50 worked out at 3.51 nM and the “(IC50 CDK12 high ATP) to (Degradation DC50 CDK12) ratio” value is on record as 387. In addition, the IC50 at CDK2/CycE was above 20000 nM.

Regarding `CN[C@@H]1CCN(c2nc(NCc3nc4ccccc4[nH]3)n3ncc(Br)c3n2)C1` [Example 253, N-[(1H-benzimidazol-2-yl)methyl]-8-bromo-2-[(3R)-3-(methylamino)pyrrolidin-1-yl]pyrazolo[1,5-a][1,3,5]triazin-4-amine], in test [1], the IC50 was 6.91 nM. In addition, in test [2], the DC50 was determined as 0.875 nM and the “(IC50 CDK12 high ATP) to (Degradation DC50 CDK12) ratio” value is above 22856. At CDK2/CycE, the IC50 was determined as 12200 nM.

As for `c1ccc2[nH]c(CNc3nc(N4CCNCC4)nc4c(C5CC5)cnn34)nc2c1` [Example 247, N-[(1H-benzimidazol-2-yl)methyl]-8-cyclopropyl-2-(piperazin-1-yl)pyrazolo[1,5-a][1,3,5]triazin-4-amine], the figures for the IC50 (in test [1]; at CDK2/CycE) were 9.79 nM and above 20000 nM, respectively. The DC50 in test [2] is 1.38 nM. Further, the “(IC50 CDK12 high ATP) to (Degradation DC50 CDK12) ratio” value in test [2] stood at 10678.

Regarding `Fc1ccc2[nH]c(CNc3nc(N4CCOCC4)nc4c(C5CC5(F)F)cnn34)nc2c1F` (stereo not shown) [Example 278, N-[(4,5-difluoro-1H-benzimidazol-2-yl)methyl]-8-(2,2-difluorocyclopropyl)-2-(morpholin-4-yl)pyrazolo[1,5-a][1,3,5]triazin-4-amine], the IC50 in test [1] was found to be 7.54 nM. In test [2], the DC50 came to 1.18 nM and the “(IC50 CDK12 high ATP) to (Degradation DC50 CDK12) ratio” value is recorded as 2070. For the same molecule, the IC50 at CDK2/CycE is above 20000 nM.

For the molecule `CC1(N)CCN(c2nc(NCc3nc4ccccc4[nH]3)n3ncc(Br)c3n2)CC1` [Example 290, 2-(4-amino-4-methylpiperidin-1-yl)-N-[(1H-benzimidazol-2-yl)methyl]-8-bromopyrazolo[1,5-a][1,3,5]triazin-4-amine], the IC50 in test [1] stood at 20.3 nM. Further, in test [2], the DC50 came to 21.5 nM and the “(IC50 CDK12 high ATP) to (Degradation DC50 CDK12) ratio” value was above 920. Besides, the IC50 at CDK2/CycE came out at 7210 nM.

For `Clc1cc2nc(CNc3nc(N4CCOCC4)nc4c(C5CC5)cnn34)[nH]c2cc1Cl` [Example 301, 8-cyclopropyl-N-[(5,6-dichloro-1H-benzimidazol-2-yl)methyl]-2-(morpholin-4-yl)pyrazolo[1,5-a][1,3,5]triazin-4-amine], the IC50 in test [1] was found to be 5.74 nM. Besides, in test [2], the DC50 is 4.37 nM and the “(IC50 CDK12 high ATP) to (Degradation DC50 CDK12) ratio” value turned out to be 270. Further, the IC50 on CDK2/CycE is above 20000 nM.

Take `CN(CC(C)(C)O)c1nc(NCc2nc3cc(F)c(Cl)cc3[nH]2)n2ncc(C3CC3)c2n1` [Example 317, 1-[(4-{[(6-chloro-5-fluoro-1H-benzimidazol-2-yl)methyl]amino}-8-cyclopropylpyrazolo[1,5-a][1,3,5]triazin-2-yl)(methyl)amino]-2-methylpropan-2-ol]: the IC50 in test [1] was determined as 3.66 nM. In test [2], the DC50 amounted to 5.47 nM and the “(IC50 CDK12 high ATP) to (Degradation DC50 CDK12) ratio” value was determined as 179. The IC50 on CDK2/CycE was determined as 10700 nM.

On to `Cc1ccnc2[nH]c(CNc3nc(N4CCOCC4)nc4c(Br)cnn34)nc12` [Example 20, 8-bromo-N-[(7-methyl-3H-imidazo[4,5-b]pyridin-2-yl)methyl]-2-(morpholin-4-yl)pyrazolo[1,5-a][1,3,5]triazin-4-amine], for which the IC50 in test [1] stood at 14.2 nM. Further, in test [2], the DC50 is 2.57 nM and the “(IC50 CDK12 high ATP) to (Degradation DC50 CDK12) ratio” value stood at 681. Besides, the IC50 on CDK2/CycE came to 1720 nM.

Regarding `N[C@@H]1CN(c2nc(NCc3nc4ccccc4[nH]3)n3ncc(Br)c3n2)CC12CC2` [Example 251, 2-[(7S)-7-amino-5-azaspiro[2.4]heptan-5-yl]-N-[(1H-benzimidazol-2-yl)methyl]-8-bromopyrazolo[1,5-a][1,3,5]triazin-4-amine], the IC50 in test [1] is 6.6 nM. For the same molecule, in test [2], the DC50 was determined as 0.145 nM and the “(IC50 CDK12 high ATP) to (Degradation DC50 CDK12) ratio” value was 6727. The IC50 at CDK2/CycE amounted to 2580 nM.
